Measurements taken from paper PMC3199867, “Targeting surface nucleolin with multivalent HB-19 and related Nucant pseudopeptides results in distinct inhibitory mechanisms depending on the malignant tumor cell type” (BMC Cancer, 2011).

What was measured:
[1] = tested on: IL-6; test: IL-6 production by PBMC stimulated with heat-killed Staphylococcus aureus, ELISA; format: cell-based; settings: Homo sapiens, PBMC + HKSA 10^8 particles/ml, 1 μg/ml, 20 hours post-stimulation, triplicate, read-out: degree of inhibition of IL-6 production
Description: (§1) Peripheral blood mononuclear cells (PBMC) from healthy donors were prepared by Ficoll-Hypaque density gradient centrifugation and suspended in RPMI 1640 medium containing 1% (v/v) of human serum AB (from Invitrogen). PBMC (10^6 cells/0.5 ml) in the absence or presence of 10 μM of each of HB-19, N3, N6, and N7, or 1 μg/ml of dexamethasone (Sigma) were stimulated with 10^8 particles/ml of Heat-killed Staphylococcus aureus (HKSA; InvivoGen, San Diego, USA). The cultures were incubated at 37°C in a 5% CO2 incubator, and the level of TNF-α and IL-6 was monitored in the culture supernatants by ELISA (R & D Systems) at 20 hours post-stimulation.
(§2) Figure 3 HB-19 and related Nucant pseudopeptides inhibit the production of TNF-α and IL-6 by peripheral blood lymphocytes. The production of pro-inflammatory cytokines in PBMC cultures stimulated with HKSA was carried out in triplicate in the absence (Control) or presence of 10 μM of each of HB-19, N3, N6, N7, N6L, or 1 μg/ml of dexamethasone (Dex.)(Methods). The level of TNF-α (section A) and IL-6 (section B) was monitored in culture supernatants by ELISA. The data presents the mean ± SD of triplicate samples. The degree of inhibition is indicated at the top of each histogram. Statistical significance: **p < 0.01, ***p < 0.001. […]

[2] = tested on: TNF-α; test: TNF-α production by PBMC stimulated with heat-killed Staphylococcus aureus, ELISA; format: cell-based; settings: Homo sapiens, PBMC + HKSA 10^8 particles/ml, 1 μg/ml, 20 hours post-stimulation, triplicate, read-out: degree of inhibition of TNF-α production
Description: as §1, §2

[3] = tested on: T29; test: Cell growth / multiplication (viable cell number); format: cell-based, murine; settings: for multiplication index of cells at day 3 compared to day 0: T29 seeded at 150,000 cells/ml, 20 μM (pentavalent), triplicate, control 17.5-fold
Description: (§3) Human breast (MDA-MB-231, MDA-MB-435 [37]), prostate (LNCaP, from American Type Culture Collection, ATCC, Rockville, MD), and cervical (HeLa) epithelial cancer cells were grown in DMEM-glutamax medium (Gibco Invitrogen, Cergy-Pontoise, France) containing GlutaMAX™, 4.5 g/l glucose and supplemented with 10% heat-inactivated (56°C for 30 min) fetal bovine serum (FBS; Hyclone, Thermo Fisher Scientific, Inc). Human SW480 cells are derived from a grade 3-4 colon carcinoma, while the highly metastatic counterpart SW620 is established from the lymph node of a person. Both SW480 and SW620 cells (obtained from Francis Raul, IRCAD) are highly tumorigenic in nude mice. They were cultured in D-MEM, 10% FCS. The murine melanoma TIII cell line was obtained from Armelle Prévost-Blondel. Murine T29 lymphoma cells, obtained from Philippe Kastner (CNRS, Strasbourg), have been established from Ik^L/L tumors from mice carrying a hypomorphic mutation (Ik^L/L) in the Ikaros gene encoding a transcription factor that regulates lymphocyte differentiation, and acts also as a tumor suppressor in T lymphocytes. The T29 cells were cultured in RPMI medium containing 25 mM Hepes pH 7.6, 1 mM sodium pyruvate, and 10% FCS. Human leukemia cell lines, Jurkat (acute T cell leukemia), HuT 78 (cutaneous T lymphocyte), RAJI (Burkitt lymphoma), and HL60 (promyelocytic leukemia) were cultured in RPMI-1640 medium (Gibco) containing GlutaMAX™, and supplemented with 10% heat-inactivated FBS as described before. The wild-type Chinese hamster ovary cell line (CHO K1) was purchased from American Type Culture Collection (ATCC; Rockville, MD). The CHO LRP1-null cell line (CHO-13-5-1) was kindly provided by D. Strickland [47]. They were cultured in Ham's F12K medium. All cells were cultured with 10% (v/v) heat inactivated (56°C, 30 min) fetal bovine serum (FBS) (Roche Molecular Biochemicals, Indianapolis, IN) and 50 international units/mL penicillin-streptomycin (Invitrogen). Cell death was monitored conveniently by uptake of the trypan blue dye due to plasma membrane permeability of dying and/or dead cells.
Figure 7 HB-19 and related multivalent Nucant pseudopeptides induce cell death associated with internucleosomal DNA fragmentation. A. Inhibition of cell multiplication by HB-19 and related multivalent Nucant pseudopeptides. […] Cell cultures (in triplicate) were monitored for viable cell number daily for 3 days. The histograms show the mean number of cells/ml ± SD of triplicate samples. The multiplication index of cells at day 3 compared to day 0 (the day of seeding) is given at the top of histogram. At 3 days post passage of T29 cells, the cell multiplication index of cells is 17.5-fold compared to 8.9-, 7.2-, 2.2-, and 1.7-fold in the presence of treatment with HB-19, N3, N6, and N7, respectively. B. N7 inhibits T29 cell multiplication in a dose dependent manner. T29 cells seeded at 100,000/ml in 2 ml in the absence (0 μM) or presence of N7 at various concentrations 2.5, 5, 10 and 20 μM were cultured for 3 days and the number of viable cells was determined at day 1, 2, and 3 post-seeding. The ordinate gives the cell number/ml (the mean of 2 samples) in each culture at day 1, 2, and 3 post-seeding. C. Partial cleavage of surface/cytoplasmic nucleolin. T29 cells were cultured for 45 min with 0 (for control; lanes C), 2 and 10 μM of N6 before preparation of cytoplasmic (that contains both surface and cytoplasmic nucleolin) and nuclear extract and analysis by immunoblotting using rabbit polyclonal antibodies that are directed against the first 26 (panel anti-Nt Ab) and the last 16 amino acids (panel anti-Ct Ab) of human nucleolin, respectively. The nuclear extracts were analyzed by immunoblotting using anti-Nt Ab (Methods). […]

[4] = tested on: TIII; test: Cell growth / proliferation (viable cell number); format: cell-based, murine; settings: after 3 days of culture, vs untreated control, mean of at least 2 independent experiments
Description: as §3

[5] = tested on: melanoma TIII cell; test: Cell adhesion; format: cell-based, murine; settings: after 5 hours of cell seeding, vs untreated control, mean of at least 2 independent experiments
[6] = tested on: T29; test: Cell death (trypan blue uptake); format: cell-based, murine; settings: T29 cells, 0-20 μM, read-out: Cell death: IC50 24 hours post-passage
Description: as §3

[7] = tested on: CHO 13 cells (LRP-1 null); test: Midkine (MK) internalization, confocal immunofluorescence; format: cell-based, Chinese hamster; settings: CHO 13 (LRP-1 null), pretreatment 5 μM 30 min at 20°C, then MK 0.2 μM 90 min at 37°C
Description: (§4) CHO K1 and CHO 13 cells (as in the Additional file 2, Figure 3S) were incubated with 0.2 µM Midkine (MK) for 90 min at 37°C or at 20°C before fixation with PFA. In sections C and E, cells were first incubated (30 min at 20°C) with 5 µM HB-19 before addition of MK (0.2 µM) and further incubation at 37°C for 90 min. […] Experimental conditions for confocal immunofluorescence microscopy were as described previously.

[8] = tested on: CHO K1 cells; test: as above; format: cell-based, Chinese hamster; settings: CHO K1, pretreatment 5 μM 30 min at 20°C, then MK 0.2 μM 90 min at 37°C
Description: as §4

[9] = tested on: spontaneous melanoma; settings: RET mice, treatment for several months; cited from earlier work
Description: (§5) The importance of cell-surface nucleolin in cancer biology was recently highlighted by studies showing that ligands of nucleolin play critical role in tumorigenesis and angiogenesis. Accordingly, we recently reported that both of these events are suppressed by targeting surface nucleolin with the HB-19 pseudopeptide, a potent antagonist that forms an irreversible complex with surface nucleolin [9, 37]. By binding to the RGG domain of nucleolin, HB-19 prevents binding of growth factors to cells, triggers calcium entry into cells, inhibits MAP kinase activation, and down-regu ...

[10] = tested on: human breast tumor cell xenografts; settings: nude mice; cited from earlier work
Description: as §5

[11] = biological target: nucleolin (cell-surface expressed nucleolin), human (human (endogenous in HeLa, CEM, MDA-MB-231, HuT 78 and other human cell lines)) (UniProt P19338)
nucleolin (cell-surface expressed nucleolin), human (human (endogenous in HeLa, CEM, MDA-MB-231, HuT 78 and other human cell lines)), sequence (P19338 whole entry): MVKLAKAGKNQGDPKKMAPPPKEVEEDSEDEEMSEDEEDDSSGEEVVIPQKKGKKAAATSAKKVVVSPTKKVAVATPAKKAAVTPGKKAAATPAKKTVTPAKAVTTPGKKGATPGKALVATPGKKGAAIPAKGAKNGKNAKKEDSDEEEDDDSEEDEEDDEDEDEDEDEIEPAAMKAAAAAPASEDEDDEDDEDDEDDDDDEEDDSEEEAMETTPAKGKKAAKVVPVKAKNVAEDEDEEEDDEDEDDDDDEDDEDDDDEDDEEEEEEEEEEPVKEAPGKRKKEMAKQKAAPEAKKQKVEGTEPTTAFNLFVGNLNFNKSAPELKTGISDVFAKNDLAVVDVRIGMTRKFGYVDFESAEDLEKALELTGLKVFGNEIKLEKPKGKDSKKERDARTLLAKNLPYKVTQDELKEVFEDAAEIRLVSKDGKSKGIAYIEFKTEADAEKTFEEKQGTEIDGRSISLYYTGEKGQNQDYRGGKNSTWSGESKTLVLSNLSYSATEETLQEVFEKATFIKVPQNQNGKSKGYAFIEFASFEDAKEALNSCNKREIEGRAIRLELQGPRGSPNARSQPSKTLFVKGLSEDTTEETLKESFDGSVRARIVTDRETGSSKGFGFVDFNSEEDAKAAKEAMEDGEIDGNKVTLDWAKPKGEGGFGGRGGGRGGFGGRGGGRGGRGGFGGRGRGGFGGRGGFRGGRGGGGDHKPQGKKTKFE

Compound: C[C@@H]1C[C@H]2[C@@H]3CCC4=CC(=O)C=C[C@]4(C)[C@@]3(F)[C@@H](O)C[C@]2(C)[C@@]1(O)C(=O)CO [Dex., dexamethasone]
- inhibition at 1 µg/mL [1]: 62%
- inhibition at 1 µg/mL [2]: 61%

Compound: Ac-Lys-Aib-Gly-Lys-Aib-Gly-Lys-Aib-Gly-Lys-Aib-Gly-Lys-Aib-Gly-CONH2 [Nucant N3, Presents pentavalently the pseudo-tripeptide Lysψ(CH2N)-Pro-Arg coupled to the polypeptide template containing Aib]
- multiplication index of cells at day 3 compared to day 0 [3]: 7.2 fold
- % Inhibition of cell Proliferation ([4]; 5 μM): No effect
- % Inhibition of cell Proliferation ([4]; 10 μM): 10%
- % Inhibition of cell Proliferation ([4]; 20 μM): 36%
- % Inhibition of cell Adhesion ([5]; 5 μM): No effect
- % Inhibition of cell Adhesion ([5]; 10 μM): 15%
- % Inhibition of cell Adhesion ([5]; 20 μM): 24%
- IC50 [6]: > 20 µM

Compound: H2NLys-Lys-Lys-Gly-Pro-Lys-Glu-Lys-AhxCONH2 [HB-19, Surface nucleolin antagonist pseudopeptide presenting pentavalently the pseudo-tripeptide Lysψ(CH2N)-Pro-Arg coupled to a peptide template]
- MK entry [7]: not affected
- MK entry [8]: prevents MK entry
- IC50 ([3]; T29 cells, 0-20 μM, number of viable cells at 3 days post-treatment, read-out: Cell number: IC50 72 hours post-passage): 20 µM
- multiplication index of cells at day 3 compared to day 0 [3]: 8.9 fold
- onset and frequency of spontaneous melanoma [9]: delays significantly
- toxicity to normal tissue [9]: no toxicity
- progression of established human breast tumor cell xenografts [10]: markedly suppresses the progression
- IC50 [6]: > 20 µM

Compound: Nucant 6 pseudopeptide
- inhibition of HIV-1 LAI entry into HeLa CD4+ (LTR-LacZ) cells, β-galactosidase activity at 48 h, 0.1-0.8 μM; activity against the pentavalent N3 and HB-19 [11]: > 2 fold

Compound: Nucant 6L pseudopeptide
- inhibition of HIV-1 LAI entry into HeLa CD4+ (LTR-LacZ) cells, β-galactosidase activity at 48 h, 0.05-0.8 μM; activity against the pentavalent N3 and HB-19 [11]: > 4 fold

Compound: Nucant 7 pseudopeptide
- inhibition of HIV-1 LAI entry into HeLa CD4+ (LTR-LacZ) cells, β-galactosidase activity at 48 h, 0.1-0.8 μM; activity against the pentavalent N3 and HB-19 [11]: > 2 fold
